Test results as given in PubChem BioAssay (NCI).
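48-hour exposure; five concentrations; linearly interpolated endpoints. GI50 is the concentration that inhibits growth by half. TGI: concentration producing complete growth inhibition.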

Assays:
Assay in all cases: NCI anticancer screen, dose series, 48 h
PC-3 prostate = system: PC-3 prostate
MALME-3M melanoma = system: MALME-3M melanoma
HT29 colon = system: HT29 colon
A498 renal = system: A498 renal
MDA-MB-231 breast = system: MDA-MB-231 breast
LOX IMVI melanoma = system: LOX IMVI melanoma
HL-60(TB) leukemia = system: HL-60(TB) leukemia
SF-295 CNS = system: SF-295 CNS
BT-549 breast = system: BT-549 breast
K-562 leukemia = system: K-562 leukemia

SMILES | GI50 (PC-3 prostate) [µM] | TGI (PC-3 prostate) [µM] | GI50 (MALME-3M melanoma) [µM] | TGI (MALME-3M melanoma) [µM] | GI50 (HT29 colon) [µM] | TGI (HT29 colon) [µM] | GI50 (A498 renal) [µM] | TGI (A498 renal) [µM] | GI50 (MDA-MB-231 breast) [µM] | TGI (MDA-MB-231 breast) [µM] | GI50 (LOX IMVI melanoma) [µM] | TGI (LOX IMVI melanoma) [µM] | GI50 (HL-60(TB) leukemia) [µM] | TGI (HL-60(TB) leukemia) [µM] | GI50 (SF-295 CNS) [µM] | TGI (SF-295 CNS) [µM] | GI50 (BT-549 breast) [µM] | TGI (BT-549 breast) [µM] | GI50 (K-562 leukemia) [µM] | TGI (K-562 leukemia) [µM]
COc1cc2c(cc1O)c(=O)n(CCN(C)C)c1c3cc4c(cc3ncc21)OCO4 | 0.243 | 2.51 | 0.0291 | 0.192 | 0.729 | 7.86 | 0.0234 | 0.0882 | 0.0616 | 5.58 | < 0.01 | 0.0245 | < 0.01 | 0.104 | 0.0517 | 4.02 | 0.025 | 0.915 | 0.019 | > 100
CCN1C(=O)N(CC)C2C1NN=c1s/c(=C\c3ccc(C(F)(F)F)cc3)c(=O)n12 (centres undefined) | 0.385 | > 41.1 | 1.3 | > 47.2 | 0.352 | 11.8 | 0.164 | 0.719 | 0.495 | 8.84 | 0.483 | > 34.6 | 0.245 | 0.609 | 0.33 | 31.2 | 0.783 | > 20.8 | 0.294 | > 39.8
CC[C@H]1CCC/C=C/[C@@H]2C[C@H](O)C[C@H]2[C@H](O)/C=C/C(=O)O1 | 0.0517 | > 100 | 0.0381 |  | 0.0264 | 0.405 | 0.0174 | 0.0596 | 0.0213 | 0.0416 | 0.0251 | 0.0793 | 0.0669 | 0.473 | 0.0545 | > 100 | 0.0549 | > 100 | 0.125 | > 100
CCc1cccc(NC(=O)Nc2ccc(Oc3ccc4nc(NC(=O)OC)[nH]c4c3)cc2)c1 | 4.9 | 19.6 | 2.14 | 11.1 | 2.04 | > 13.4 | 3.2 | 17.8 | 7.76 | > 25 | 3.77 | > 17.3 | 2.79 | > 16.4 | 3.4 | > 20.4 | 8.24 | 24.4 | 0.153 | > 25
CCCCC(OC(=O)c1ccc(N)cc1)C(=O)Nc1nc(CC(=O)OCC)cs1 (centres undefined) | 42.4 | > 100 | 30.1 | > 100 | 36.7 | > 100 | 57.4 | > 100 | 28.1 | > 100 | 39 | > 100 | 35.1 | 95.1 | 32.3 | > 100 | 34.5 | > 100 | 32.8 | > 100
